Test results published in patent publication US5436231A, “Adenophostins” (Sankyo Company, Limited, priority 1991, dated 1995).

Key:
[1] = test system: endoplasmic reticulum (microsome) of rat cerebellum; experiment: 45Ca++ releasing activity from the endoplasmic reticulum; type: biochemical; conditions: 1 minute after addition, 30° C., pH 7.2; for calcium ion released of that incorporated into the endoplasmic reticulum: compound at 10 nM
Experimental: (§1) Adenophostins A and B were characterized by their inhibitory activity on [^3 H]-InsP3 binding to rat cerebellar InsP3 receptors, and the ^45 Ca^++ releasing activity from the endoplasmic reticulum, which was prepared from rat cerebellum.
^45 Ca^++ Releasing activity from the endoplasmic reticulum
The ^45 Ca^++ releasing activity from the endoplasmic reticulum was assayed using the method reported by Supattapone et al. [Proc. Natl, Acad. Sci. USA 85, 8747-8750 (1988)] with slight modifications.
The endoplasmic reticulum (microsome) of rat cerebellum was suspended in 10 mM of a HEPES-KOH buffer (pH 7.2) containing 100 mM of potassium chloride, 2.5 mM of magnesium chloride, 1 mM of dithiothreitol (DTT), 10 mM of creatine phosphate, creatine kinase (10 units/ml), 2 μg/ml of oligomycin, 50 μM of calcium chloride containing 1 μCi/ml of ^45 Ca, and 0.12 mM of ethylene glycol bis(2-aminoethyl ether)-N,N,N',N'-tetraacetic acid (EGTA), and the protein concentration in the suspension was adjusted to 0.5 mg/ml. 1 mM of adenosine triphosphate magnesium salt was added to 1 ml of this suspension, and the mixture was incubated for 11 minutes at 30° C. in order to incorporate the ^45 Ca^++ into the endoplasmic reticulum. InsP3, adenophostin A or adenophostin B was then added to release the incorporated ^45 Ca^++ from the endoplasmic reticulum. 10 minutes after the addition of the adenosine triphosphate magnesium salt (1 minute before the addition of the adenophostins or InsP3), and then 12 minutes after the addition of the adenosine triphosphate magnesium salt (1 minute after the addition of the adenophostins or InsP3), 100 μl of the reaction solution was removed, and the sampled solution was filtered through a Milipore filter (HA, […], Product of Milipore) to collect the. endoplasmic reticulum on the filter. The filter was washed with 4 ml of a 10 mM HEPES-KOH buffer (pH 7.2) containing 100 mM of potassium chloride and 1 mM of EGTA, and the radioactivity on the filter was determined by the addition of 5 ml of Pico-flow (a trade name for a product of Packard Co.) agents.

[2] = biological target: T1, rat cerebellar InsP3 receptors (Rattus norvegicus, UniProt P29994); experiment: Inhibitory activity on [3H]-InsP3 binding to InsP3 receptors; conditions: rat cerebellar membrane fraction; 10 nM [3H]-InsP3; 5 minutes, room temperature; pH 8.0; read-out: IC50 (concentration required to inhibit the binding of [3H]-InsP3 by 50%)
T1 construct: A rat cerebellar membrane fraction was homogenized; from tissue; host or cells: rat cerebellum, membrane fraction
T1 sequence (P29994 whole entry): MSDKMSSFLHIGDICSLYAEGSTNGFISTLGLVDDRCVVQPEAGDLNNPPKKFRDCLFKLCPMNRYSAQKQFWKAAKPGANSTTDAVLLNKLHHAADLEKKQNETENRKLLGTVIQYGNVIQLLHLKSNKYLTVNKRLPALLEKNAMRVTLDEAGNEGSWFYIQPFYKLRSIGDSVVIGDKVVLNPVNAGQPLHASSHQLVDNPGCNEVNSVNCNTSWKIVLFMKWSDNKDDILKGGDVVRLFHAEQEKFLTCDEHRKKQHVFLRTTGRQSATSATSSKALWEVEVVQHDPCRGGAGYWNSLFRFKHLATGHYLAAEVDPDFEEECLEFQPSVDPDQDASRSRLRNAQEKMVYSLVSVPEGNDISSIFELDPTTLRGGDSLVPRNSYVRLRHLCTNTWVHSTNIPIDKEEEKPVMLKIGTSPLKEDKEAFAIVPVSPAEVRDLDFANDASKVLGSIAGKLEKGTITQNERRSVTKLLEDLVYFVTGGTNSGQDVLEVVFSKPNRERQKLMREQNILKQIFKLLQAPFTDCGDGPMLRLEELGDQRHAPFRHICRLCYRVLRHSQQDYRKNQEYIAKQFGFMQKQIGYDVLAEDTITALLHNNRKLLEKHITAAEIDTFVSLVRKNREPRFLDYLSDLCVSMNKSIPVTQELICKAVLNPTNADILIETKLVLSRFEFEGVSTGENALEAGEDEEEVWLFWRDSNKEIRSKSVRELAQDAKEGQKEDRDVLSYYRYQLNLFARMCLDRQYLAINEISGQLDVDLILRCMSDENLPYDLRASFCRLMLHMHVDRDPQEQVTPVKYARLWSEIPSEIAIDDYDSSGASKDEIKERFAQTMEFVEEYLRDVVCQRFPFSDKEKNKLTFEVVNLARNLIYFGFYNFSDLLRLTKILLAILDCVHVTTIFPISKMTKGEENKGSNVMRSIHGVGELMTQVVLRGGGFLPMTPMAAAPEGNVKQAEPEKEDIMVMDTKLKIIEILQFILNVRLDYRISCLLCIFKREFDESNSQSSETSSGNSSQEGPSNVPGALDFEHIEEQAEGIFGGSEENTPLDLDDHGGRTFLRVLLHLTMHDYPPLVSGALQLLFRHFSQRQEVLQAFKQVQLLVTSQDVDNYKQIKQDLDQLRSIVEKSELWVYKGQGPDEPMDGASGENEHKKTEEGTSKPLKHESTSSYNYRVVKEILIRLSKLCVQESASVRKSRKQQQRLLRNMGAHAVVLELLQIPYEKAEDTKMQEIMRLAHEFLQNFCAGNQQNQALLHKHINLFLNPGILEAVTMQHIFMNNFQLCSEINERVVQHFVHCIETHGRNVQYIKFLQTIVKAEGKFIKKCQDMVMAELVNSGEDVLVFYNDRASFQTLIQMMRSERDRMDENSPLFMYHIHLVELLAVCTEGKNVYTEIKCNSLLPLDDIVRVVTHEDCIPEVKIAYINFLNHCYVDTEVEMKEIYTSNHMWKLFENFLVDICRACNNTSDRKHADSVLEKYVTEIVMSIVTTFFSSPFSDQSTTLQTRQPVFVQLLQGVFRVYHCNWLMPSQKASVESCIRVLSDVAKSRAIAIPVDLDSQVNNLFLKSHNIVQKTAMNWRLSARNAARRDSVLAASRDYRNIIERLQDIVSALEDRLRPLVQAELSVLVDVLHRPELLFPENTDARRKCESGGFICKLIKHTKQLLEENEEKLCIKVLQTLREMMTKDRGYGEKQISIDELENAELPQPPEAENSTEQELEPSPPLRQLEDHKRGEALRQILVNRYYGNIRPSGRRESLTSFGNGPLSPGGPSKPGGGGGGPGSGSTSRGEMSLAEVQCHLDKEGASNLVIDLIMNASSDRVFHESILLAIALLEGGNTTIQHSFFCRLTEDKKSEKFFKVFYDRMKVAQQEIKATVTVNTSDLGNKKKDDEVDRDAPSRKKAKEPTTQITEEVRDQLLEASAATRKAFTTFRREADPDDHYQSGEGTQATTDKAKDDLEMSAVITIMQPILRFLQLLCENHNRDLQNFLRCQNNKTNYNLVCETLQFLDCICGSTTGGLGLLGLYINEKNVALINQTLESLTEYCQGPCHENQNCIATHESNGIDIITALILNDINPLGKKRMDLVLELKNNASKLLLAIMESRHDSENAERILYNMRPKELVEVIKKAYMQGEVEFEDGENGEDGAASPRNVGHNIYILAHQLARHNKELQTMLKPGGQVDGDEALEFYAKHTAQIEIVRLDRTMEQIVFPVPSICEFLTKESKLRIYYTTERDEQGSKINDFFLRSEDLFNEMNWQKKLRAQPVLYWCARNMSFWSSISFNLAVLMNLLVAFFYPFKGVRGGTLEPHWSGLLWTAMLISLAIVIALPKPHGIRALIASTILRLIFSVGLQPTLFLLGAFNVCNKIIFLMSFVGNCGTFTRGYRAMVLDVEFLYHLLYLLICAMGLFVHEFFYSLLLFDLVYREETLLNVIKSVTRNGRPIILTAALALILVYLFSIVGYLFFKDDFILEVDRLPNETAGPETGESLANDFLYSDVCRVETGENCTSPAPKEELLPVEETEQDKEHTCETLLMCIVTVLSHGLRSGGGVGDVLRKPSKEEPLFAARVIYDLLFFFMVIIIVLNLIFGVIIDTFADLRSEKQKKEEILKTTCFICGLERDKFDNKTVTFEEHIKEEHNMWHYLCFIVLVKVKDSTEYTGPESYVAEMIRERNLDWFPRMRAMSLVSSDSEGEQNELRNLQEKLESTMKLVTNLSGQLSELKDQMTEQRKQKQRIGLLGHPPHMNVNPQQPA
Experimental: as §1
Inhibitory activity on [^3 -H]-InSP3 binding to InsP3 receptors
The inhibitory activity of [^3 H]-InsP3 binding was assayed according to the method of Worley et al. [J. Biol. Chem. 262, 12132-12136 (1987)].
A rat cerebellar membrane fraction was homogenized in 50 mM of Tris-HC1 (pH 8.0) and 1 mM of ethylenediaminetetraacetic acid, and the protein concentration in the homogenized material was adjusted to 0.6 mg/ml. 1 ml of this cerebellar homogenate was taken and 10 nM of [^3 H]-InsP3and either adenophostin A or adenophostin B were added to it. The mixture was incubated for 5 minutes at room temperature, and then centrifuged for 5 minutes at 12,000 rpm at a temperature of 4° C. The supernatant was removed and the precipitated cerebellar membrane fraction was dissolved in 5 ml of Pico-flow (a trade name for a product of Packard Co.) to determine its radioactivity. The bound [^3 H]-InsP3 was then determined.
IC50 indicates the concentration required to inhibit the binding of [^3 H]-InsP3 by 50%.

Solubility = type: physicochemical; conditions: for Solubility in lower alcohols: such as methanol or ethanol

IC50 [2]	Solubility in acetone, ethyl acetate or chloroform (Solubility)	Solubility in lower alcohols (Solubility)	Solubility in water and dimethyl sulfoxide (Solubility)	SMILES	calcium ion released of that incorporated into the endoplasmic reticulum (adenophostin activities at 10 nM stated equal to that of InsP3) ([1]; InsP3 at 10 μM)	calcium ion released of that incorporated into the endoplasmic reticulum [1]
–	–	–	–	O=P(O)(O)O[C@@H]1[C@H](O)[C@H](O)[C@@H](OP(=O)(O)O)[C@H](OP(=O)(O)O)[C@H]1O [InsP3, inositol 1,4,5-trisphosphate, reference compound]	35%	–
6 nM	insoluble	slightly soluble	Soluble	Nc1ncnc2c1ncn2[C@@H]1O[C@H](CO)[C@@H](O[C@H]2O[C@H](CO)[C@@H](OP(=O)(O)O)[C@H](OP(=O)(O)O)[C@H]2O)[C@H]1OP(=O)(O)O [adenophostin A]	–	35%
8 nM	insoluble	slightly soluble	Soluble	CC(=O)OC[C@H]1O[C@H](O[C@H]2[C@@H](OP(=O)(O)O)[C@H](n3cnc4c(N)ncnc43)O[C@@H]2CO)[C@H](O)[C@@H](OP(=O)(O)O)[C@@H]1OP(=O)(O)O [adenophostin B]	–	35%
